From patent publication US7202280B2, “Methods for the treatment and prevention of pancreatitis and for induction of liver regeneration” (priority 2002, dated 2007)

Tested on: syngenic and metallothionein-SSAT mice
Assay: Hepatic, pancreatic and renal polyamine concentration in syngenic and metallothionein-SSAT mice after analogue
Format: in vivo, mouse
Conditions: Tg (transgenic) mice, 24 h before sacrifice
Procedure: α-methylspermidine, Bis-α-methylspermine and α-methylspermine were administered in saline. […] The data are expressed as means ±S.D. For statistical analysis, the two-tailed Student's t test was used.

CC(N)CCNCCCCNCCC(C)N (stereo not drawn) [bis-α-methylspermine, 1,12-dimethylspermine]
hepatic polyamine concentration, N^1-Acetylspermidine (12.5 mg/kg): 226.74 pmoles/mg tissue wet weight | hepatic polyamine concentration, N^8-Acetylspermidine (12.5 mg/kg): 9.43 pmoles/mg tissue wet weight | hepatic polyamine concentration, Putrescine (12.5 mg/kg): 944.38 pmoles/mg tissue wet weight | hepatic polyamine concentration, Spermidine (12.5 mg/kg): 792.81 pmoles/mg tissue wet weight | hepatic polyamine concentration, Spermine (12.5 mg/kg): 104.48 pmoles/mg tissue wet weight | pancreatic polyamine concentration, N^1-Acetylspermidine (12.5 mg/kg): 267.18 pmoles/mg tissue wet weight | pancreatic polyamine concentration, Putrescine (12.5 mg/kg): 6168.51 ± 1253.00 pmoles/mg tissue wet weight | pancreatic polyamine concentration, Spermidine (12.5 mg/kg): 3646.27 ± 367.99 pmoles/mg tissue wet weight | pancreatic polyamine concentration, Spermine (12.5 mg/kg): 187.07 ± 5.15 pmoles/mg tissue wet weight | renal polyamine concentration, N^1-Acetylspermidine (12.5 mg/kg): 19.74 pmoles/mg tissue wet weight | renal polyamine concentration, N^8-Acetylspermidine (12.5 mg/kg): 16.35 ± 1.03 pmoles/mg tissue wet weight | renal polyamine concentration, Putrescine (12.5 mg/kg): 184.32 pmoles/mg tissue wet weight | renal polyamine concentration, Spermidine (12.5 mg/kg): 235.80 pmoles/mg tissue wet weight | renal polyamine concentration, Spermine (12.5 mg/kg): 739.17 pmoles/mg tissue wet weight | hepatic concentration, Bis-α-Methylspermine (25 mg/kg): 105.83 pmoles/mg tissue wet weight | hepatic polyamine concentration, N^1-Acetylspermidine (25 mg/kg): 219.53 pmoles/mg tissue wet weight | hepatic polyamine concentration, N^8-Acetylspermidine (25 mg/kg): 9.03 pmoles/mg tissue wet weight | hepatic polyamine concentration, Putrescine (25 mg/kg): 895.27 pmoles/mg tissue wet weight | hepatic polyamine concentration, Spermidine (25 mg/kg): 673.04 pmoles/mg tissue wet weight | hepatic polyamine concentration, Spermine (25 mg/kg): 66.74 pmoles/mg tissue wet weight | pancreatic concentration, Bis-α-Methylspermine (25 mg/kg): 315.13 ± 82.18 pmoles/mg tissue wet weight | pancreatic polyamine concentration, N^1-Acetylspermidine (25 mg/kg): 474.31 pmoles/mg tissue wet weight | pancreatic polyamine concentration, N^8-Acetylspermidine (25 mg/kg): 64.06 pmoles/mg tissue wet weight | pancreatic polyamine concentration, Putrescine (25 mg/kg): 7573.46 ± 1084.90 pmoles/mg tissue wet weight | pancreatic polyamine concentration, Spermidine (25 mg/kg): 3389.87 ± 447.32 pmoles/mg tissue wet weight | pancreatic polyamine concentration, Spermine (25 mg/kg): 73.43 ± 6.82 pmoles/mg tissue wet weight | renal concentration, Bis-α-Methylspermine (25 mg/kg): 315.13 pmoles/mg tissue wet weight | renal polyamine concentration, N^1-Acetylspermidine (25 mg/kg): 25.57 pmoles/mg tissue wet weight | renal polyamine concentration, N^8-Acetylspermidine (25 mg/kg): 17.52 ± 3.88 pmoles/mg tissue wet weight | renal polyamine concentration, Putrescine (25 mg/kg): 137.26 pmoles/mg tissue wet weight | renal polyamine concentration, Spermidine (25 mg/kg): 216.59 pmoles/mg tissue wet weight | renal polyamine concentration, Spermine (25 mg/kg): 565.06 pmoles/mg tissue wet weight | hepatic concentration, Bis-α-Methylspermine (37.5 mg/kg): 158.82 pmoles/mg tissue wet weight | hepatic polyamine concentration, N^1-Acetylspermidine (37.5 mg/kg): 355.10 pmoles/mg tissue wet weight | hepatic polyamine concentration, N^8-Acetylspermidine (37.5 mg/kg): 19.03 pmoles/mg tissue wet weight | hepatic polyamine concentration, Putrescine (37.5 mg/kg): 1032.66 pmoles/mg tissue wet weight | hepatic polyamine concentration, Spermidine (37.5 mg/kg): 404.05 pmoles/mg tissue wet weight | hepatic polyamine concentration, Spermine (37.5 mg/kg): 74.10 pmoles/mg tissue wet weight | pancreatic concentration, Bis-α-Methylspermine (37.5 mg/kg): 421.62 ± 147.44 pmoles/mg tissue wet weight | pancreatic polyamine concentration, N^1-Acetylspermidine (37.5 mg/kg): 339.96 pmoles/mg tissue wet weight | pancreatic polyamine concentration, N^8-Acetylspermidine (37.5 mg/kg): 90.85 pmoles/mg tissue wet weight | pancreatic polyamine concentration, Putrescine (37.5 mg/kg): 8158.57 ± 2876.94 pmoles/mg tissue wet weight | pancreatic polyamine concentration, Spermidine (37.5 mg/kg): 2268.60 ± 1821.72 pmoles/mg tissue wet weight | pancreatic polyamine concentration, Spermine (37.5 mg/kg): 98.77 ± 82.83 pmoles/mg tissue wet weight | renal concentration, Bis-α-Methylspermine (37.5 mg/kg): 421.62 pmoles/mg tissue wet weight | renal polyamine concentration, N^1-Acetylspermidine (37.5 mg/kg): 27.37 pmoles/mg tissue wet weight | renal polyamine concentration, N^8-Acetylspermidine (37.5 mg/kg): 16.82 ± 4.23 pmoles/mg tissue wet weight | renal polyamine concentration, Putrescine (37.5 mg/kg): 225.66 pmoles/mg tissue wet weight | renal polyamine concentration, Spermidine (37.5 mg/kg): 185.57 pmoles/mg tissue wet weight | renal polyamine concentration, Spermine (37.5 mg/kg): 426.59 pmoles/mg tissue wet weight | hepatic concentration, Bis-α-Methylspermine (50 mg/kg): 300.81 pmoles/mg tissue wet weight | hepatic polyamine concentration, N^1-Acetylspermidine (50 mg/kg): 207.30 pmoles/mg tissue wet weight | hepatic polyamine concentration, N^8-Acetylspermidine (50 mg/kg): 19.27 pmoles/mg tissue wet weight | hepatic polyamine concentration, Putrescine (50 mg/kg): 717.95 pmoles/mg tissue wet weight | hepatic polyamine concentration, Spermidine (50 mg/kg): 293.21 pmoles/mg tissue wet weight | hepatic polyamine concentration, Spermine (50 mg/kg): 69.63 pmoles/mg tissue wet weight | pancreatic concentration, Bis-α-Methylspermine (50 mg/kg): 400.64 ± 63.85 pmoles/mg tissue wet weight | pancreatic polyamine concentration, N^1-Acetylspermidine (50 mg/kg): 288.51 pmoles/mg tissue wet weight | pancreatic polyamine concentration, Putrescine (50 mg/kg): 5123.85 ± 573.32 pmoles/mg tissue wet weight | pancreatic polyamine concentration, Spermidine (50 mg/kg): 2326.21 ± 126.42 pmoles/mg tissue wet weight | pancreatic polyamine concentration, Spermine (50 mg/kg): 119.48 ± 37.92 pmoles/mg tissue wet weight | renal concentration, Bis-α-Methylspermine (50 mg/kg): 400.64 pmoles/mg tissue wet weight | renal polyamine concentration, N^8-Acetylspermidine (50 mg/kg): 12.21 ± 4.20 pmoles/mg tissue wet weight | renal polyamine concentration, Putrescine (50 mg/kg): 173.97 pmoles/mg tissue wet weight | renal polyamine concentration, Spermidine (50 mg/kg): 204.20 pmoles/mg tissue wet weight | renal polyamine concentration, Spermine (50 mg/kg): 481.68 pmoles/mg tissue wet weight
